Measured values from US20030187261A1, “Purine derivatives, process for their preparation and use thereof” (priority 2000, published 2003).

How the values were obtained:
HIV-1 [1] = conditions: CEM cells
Protocol: (§6) The infected cell cultures were incubated at 37° C. for 5 days in a humidified CO2 incubator. The cytopathicity of the virus was examined by determination of MT-4 cell viability by trypan blue dye staining.

HIV-2 [2] = assay: anti-HIV-2 activity in CEM cells; type: cell-based
Protocol: as §6

MSV = assay: MSV-induced transformation in murine embryo fibroblast C3H/3T3 cells; type: cell-based; conditions: day 6 post infection
Protocol: The cells were seeded in 1-ml-wells of 48-well plates and exposed to 80 PFU (plaque forming units) for 60-90 min. The virus was subsequently removed and culture medium containing appropriate concentrations of the tested compounds was added (1 ml per well). At day 6-post infection, MSV-induced transformation of the cell culture was examined microscopically. The results are summarised in Table 9 in comparison with the data on the prototype compounds.

HIV-2 [3] = assay: HIV-2-induced cytopathicity in MT-4 cells; type: cell-based; conditions: for HIV-2 MT-4 IC50: MT-4 cells, 5 days
Protocol: as §6

HIV-1 [4] = conditions: for HIV-1 MT-4 IC50: MT-4 cells, 5 days
Protocol: as §6

[5] = tested on: T-lymphoblastic leukemia cell line CEM; assay: MTT cytotoxicity assay, CEM; type: cell-based, human; conditions: 72 hours (TCS50 in the method)
Excerpt: (§1) One of the parameters used as the basis for colorimetric assays is the metabolic activity of viable cells. For example, a microtiter assay, which uses the tetrazolium salt MTT, is now widely used to quantitate cell proliferation and cytotoxicity. For instance, this assay is used in drug screening programs and in chemosensitivity testing. Because only metabolically active cells cleave tetrazolium salts, these assays detect viable cells exclusively. In the case of MTT assay, yellow soluble tetrazolium salt is reduced to coloured water-insoluble formazan salt. After it is solubilized, the formazan formed can easily and rapidly be quantified in a conventional ELISA plate reader at 570 nm (maximum absorbance). The quantity of reduced formazan corresponds to number of vital cells in the culture. Human T-lymphoblastic leukemia cell line CEM; promyelocytic HL-60 and monocytic U937 leukemias; breast carcinoma cell lines MCF-7, BT549, MDA-MB-231; glioblastoma U87MG cells; cervical carcinoma cells HELA; sarcoma cells U20S and Saos2; hepatocellular carcinoma HepG2; mouse immortalized bone marrow macrophages B2.4 and B10A.4; P388D1 and L1210 leukemia; B16 and B16F10 melanomas were used for routine screening of the compounds according to the invention. The cells were maintained in Nunc/Corning 80 cm^2 plastic tissue culture flasks and cultured in cell culture medium (DMEM with 5 g/l glucose, 2 mM glutamine, 100 U/ml penicillin, 100 μg/ml streptomycin, 10% fetal calf serum and sodium bicarbonate).
(§2) The cell suspensions that were prepared and diluted according to the particular cell type and the, expected target cell density (2500-30000 cells per well based on cell growth characteristics) were added by pipette (80 μl) into 96-well microtiter plates. Inoculates were allowed a pre-incubation period of 24 hours at 37° C. and 5% CO2 for stabilisation. Four-fold dilutions of the intended test concentration were added at time zero in 20 μl aliquots to the microtiter plate wells. Usually, test compound was evaluated at six 4-fold dilutions. In routine testing, the highest well concentration was 266.7 μM, but it can be the matter of change dependent on the agent. All drug concentrations were examined in duplicates. Incubations of cells with the test compounds lasted for 72 hours at 37° C., in 5% CO2 atmosphere and 100% humidity. At the end of incubation period, the cells were assayed by using the MTT. Ten microliters of the MTT stock solution were pipetted into each well and incubated further for 1-4 hours. After this incubation period, formazan was solubilized by addition of 100 μl/well of 10% SDS in water (pH=5.5) followed by further incubation at 37° C. overnight. The optical density (OD) was measured at 540 nm with the Labsystem iEMS Reader MF (UK). The tumour cell survival (TCS) was calculated using the following equation: TCS=(ODdrug exposed well/mean ODcontrol wells)×100%. The TCS50 value, the drug concentration lethal to 50% of the tumour cells, was calculated from the obtained dose response curves.
(§3) The cytoxicity of novel compounds was tested on panel of cell lines of different histogenetic and species origin (Table 7). Equal activities were found in all tumour cell lines tested. […] Importantly, this observation distinguishes the purine derivatives of the invention from flavopiridol and related compounds, as their biological activity is dependent on p53 status.

normal human lymphocytes = assay: concanavalin A induced lymphocyte proliferation, [3H]-TdR incorporation; type: cell-based; conditions: 72 hours, read-out: ED50 (the source's name)
Protocol: Human heparinized peripheral blood was obtained from healthy volunteers by cubital vein punction. The blood was diluted in PBS (1:3) and mononuclear cells were separated by centrifugation in Ficoll-Hypaque density gradient (Pharmacia, 1.077 g/ml) at 2200 rpm for 30 minutes. Following centrifugation, lymphocytes were washed in PBS and resuspended in cell culture medium (RMPI 1640, 2 mM glutamine, 100 U/ml penicillin, 100 μg/ml streptomycin, 10% fetal calf serum and sodium bicarbonate).
The cells were diluted at target density of 1100000 cells/ml and were added by pipette (180 μl) into 96/well microtiter plates. Four-fold dilutions of the intended test concentration were added at time zero in 20 μl aliquots to the microtiter plate wells. Usually, test compound was evaluated at six 4-fold dilutions. In routine testing, the highest well concentration was 266.7 μM. All drug concentrations were examined in duplicates. All wells with exception of unstimulated controls were activated with 50 μl of concanavalin A (25 μg/ml). Incubations of cells with test compounds lasted for 72 hours at 37° C., in 5% CO2 atmosphere and 100% humidity. At the end of incubation period, the cells were assayed by using the [^3H]-TdR:
Cell cultures were incubated with […] (20 μl of stock solution 500 μCi/ml) per well for 6 hours at 37° C. and 5% CO2. The automated cell harvester was used to lyse cells in water and adsorb the DNA onto glass-fiber filters in the format of microtiter plate. The DNA incorporated [^3H]-TdR was retained on the filter while unincorporated material passes through. The filters were dried at room temperature overnight, sealed into a sample bag with 10-12 ml of scintillant. The amount of [^3H]-TdR present in each filter (in cpm) was determined by scintillation counting in a Betaplate liquid scintillation counter. The effective dose of immunosuppressant (ED) was calculated using the following equation: ED=(cpmdrug exposed well/mean cpmcontrol wells)×100%. The EDs50 value, the drug concentration inhibiting proliferation of 50% of lymphocytes, was calculated from the obtained dose response curves.
To evaluate immunosuppressive activity of substituted adenines, their ability to inhibit polyclonal mitogen induced proliferation of normal human lymphocytes was analyzed (Table 8). […] Effective immunosuppressive dose of new derivatives under in vitro conditions was close to 1-20 μM.

B16 melanoma = assay: MTT cytotoxicity assay, B16; type: cell-based, mouse; conditions: 72 hours (TCS50 in the method)
Excerpt: as §1, §2, §3

CDC2 = biological target: T1, CDC2 (Homo sapiens, UniProt P06493); assay: p34cdc2 (CDC2) kinase inhibition assay, histone H1 substrate; type: biochemical; conditions: Table 3
T1 construct: made in house; host or cells: Sf9 insect cells, baculovirus co-infection
T1 sequence (P06493 whole entry, species assumed): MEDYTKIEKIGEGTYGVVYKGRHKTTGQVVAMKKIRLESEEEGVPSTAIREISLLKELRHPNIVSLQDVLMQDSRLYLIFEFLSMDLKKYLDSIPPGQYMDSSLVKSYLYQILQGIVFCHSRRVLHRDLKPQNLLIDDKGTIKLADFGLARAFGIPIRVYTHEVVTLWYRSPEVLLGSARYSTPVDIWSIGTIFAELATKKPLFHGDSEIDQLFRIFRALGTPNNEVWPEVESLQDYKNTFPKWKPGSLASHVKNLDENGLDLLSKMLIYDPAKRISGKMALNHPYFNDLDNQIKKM
T1 sequence (P14635 whole entry partner, species assumed): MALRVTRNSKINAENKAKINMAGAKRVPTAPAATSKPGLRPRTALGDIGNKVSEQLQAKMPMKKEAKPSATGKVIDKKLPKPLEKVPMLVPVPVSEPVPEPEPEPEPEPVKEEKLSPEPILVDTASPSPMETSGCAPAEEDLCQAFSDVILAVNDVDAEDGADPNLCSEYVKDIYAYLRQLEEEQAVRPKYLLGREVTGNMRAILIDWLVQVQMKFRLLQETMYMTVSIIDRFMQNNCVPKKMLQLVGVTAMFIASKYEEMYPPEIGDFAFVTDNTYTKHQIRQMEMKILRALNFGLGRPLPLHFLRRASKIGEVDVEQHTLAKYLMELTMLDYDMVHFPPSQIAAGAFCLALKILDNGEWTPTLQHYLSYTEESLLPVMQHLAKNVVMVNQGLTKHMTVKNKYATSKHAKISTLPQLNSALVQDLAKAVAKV
Protocol: Cyclin-dependent kinases (p34^cdc2, p33^cdk2, p33^cdk4 and cyclins (cyclin B, E and DI) are produced in Sf9 insect cells coinfected with appropriate baculoviral constructs. The cells are harvested 68-72 hrs post infection in lysis buffer for 30 min on ice and the soluble fraction is recovered by centrifugation at 14.000 g for 10 min. The protein extract is stored at −80° C.
To carry out experiments on kinetics under linear conditions, the final point test system for kinase activity measurement is used. The kinase is added to the reaction mixture in such a way that linear activity is obtained with respect to the concentration of enzyme and with respect to time.
Inhibition of p33^cdk4 kinase is determined with Rb-GST (0.2 mg/ml) as the substrate. Kinase activity is determined at 30° C. in kinase buffer.
Tested compounds are usually dissolved to 100 mM solutions in DMSO, the final concentration of DMSO in reaction mixture never exceeds 1%. The controls contain suitable dilutions of DMSO. After 10 min, the addition of 3×SDS sample buffer stops the incubations. […] The measurement of kinase activity is done using digital image analysis. The kinase activity is expressed as a percentage of maximum activity, the apparent inhibition constants are determined by graphic analysis. Kinase buffer: 50 mM Hepes pH 7.4, 10 mM MgCl21 5 mM EGTA, 10 mM 2-glycerolphosphate,

IκB-α = IκB-α kinase-inhibitory activity; type: biochemical; conditions: Table 3
Excerpt: Modification of 2,6,9-trisubstituted purines by a catechol-like substituent at R6 leads to an increase in cdk inhibitory activity of the tested compounds.

MPF activity = assay: M-phase promoting factor inhibition in metaphase-arrested Xenopus egg extracts; type: biochemical; conditions: 1.5 h after addition
Protocol: (§4) Metaphase-arrested Xenopus egg extracts were prepared as described previously by Blow “J. Cell Biol.” 1993, 122:993 and stored in liquid nitrogen. Demembranated Xenopus sperm nuclei were prepared as described by Blow & Laskey “Cell” 1986;47:577.
(§5) At concentrations of cdk inhibitors (see Table 6) ranging from 0.1-2 μM, chromosomes remained highly condensed and no nuclear envelope was visible. At 4-6 μM and higher concentrations, interphase nuclei appeared with partially decondensed chromatin and an intact nuclear envelope. […] For the inhibition effect to become detectable, the first 15-min incubation of the interphase extract is probably sufficient.

DNA synthesis = DNA synthesis in Xenopus egg extracts ([α-32P]dATP incorporation); type: biochemical; conditions: [α-32P]dATP incorporation after 3 h; read-out: Inhibition of DNA synthesis IC50
Protocol: as §4, §5

retroviruses = assay: anti-retroviral activity in vitro; type: cell-based
Protocol: as §6

the cells = conditions: at 100 μg/ml

Nc1nc(NCc2ccc(O)c(O)c2)c2ncn(CCOCP(=O)(O)O)c2n1
HIV-1 CEM IC50 (HIV-1 [1]): >20 µg/mL
HIV-2 CEM IC50 (HIV-2 [2]): >20 µg/mL

CN(CCc1ccc(O)c(O)c1)c1nc(N)nc2c1ncn2CCOCP(=O)(O)O
MSV IC50 (MSV): 0.9 µg/mL
HIV-1 CEM IC50 (HIV-1 [1]): >20 µg/mL
HIV-2 MT-4 IC50 (HIV-2 [3]): 32 µg/mL
HIV-2 CEM IC50 (HIV-2 [2]): >20 µg/mL

CC(Cn1cnc2c(NCc3ccc(O)c(O)c3)nc(N)nc21)OCP(=O)(O)O (centres unmarked)
HIV-1 MT-4 IC50 (HIV-1 [4]): 3.2 µg/mL
HIV-2 CEM IC50 (HIV-2 [2]): 8.3 µg/mL

CC(Cn1cnc2c(N(C)CCc3ccc(O)c(O)c3)nc(N)nc21)OCP(=O)(O)O (centres unmarked)
HIV-2 MT-4 IC50 (HIV-2 [3]): 3.2 µg/mL
HIV-2 CEM IC50 (HIV-2 [2]): 7.8 µg/mL

CC(Cn1cnc2c(NC(CO)c3ccccc3)nc(N)nc21)OCP(=O)(O)O (centres unmarked)
HIV-1 CEM IC50 (HIV-1 [1]): >20 µg/mL
HIV-1 MT-4 IC50 (HIV-1 [4]): 10.1 µg/mL
HIV-2 CEM IC50 (HIV-2 [2]): >20 µg/mL

CC[C@H](CO)Nc1nc(N(C)CCc2ccc(O)c(O)c2)c2ncn(C(C)C)c2n1
IC50 [5]: 6000 nM
EC50 (normal human lymphocytes): 1500 nM
IC50 (B16 melanoma): 6000 nM
IC50 (CDC2): 950 nM
IC50 (IκB-α): 3200 nM
IC50 (MPF activity): 1120 nM
IC50 (DNA synthesis): 1300 nM

Nc1nc(NC(CO)c2ccccc2)c2ncn(CCOCP(=O)(O)O)c2n1 (racemic)
HIV-1 CEM IC50 (HIV-1 [1]): >20 µg/mL
HIV-2 CEM IC50 (HIV-2 [2]): >20 µg/mL

C[C@H](Cn1cnc2c(N)nc(N)nc21)OCP(=O)(O)O [(R)-PMPD]
EC50 retrovirus replication (retroviruses): 0.01 to 0.1 µg/mL
selectivity index (ratio cytotoxic dose/antivirally active dose) (HIV-2 [3]; HIV-2): higher than 2000
selectivity index (ratio cytotoxic dose/antivirally active dose) (HIV-1 [4]; HIV-1): higher than 2000
toxicity to the cells (the cells): not toxic
